Measured values taken from PubChem BioAssay (NCI).
Values joined by “and” are separate entries in the source; they are usually repeats but may differ in a detail not shown here. Identical values can stand only once.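 Method: 48-hour compound exposure of cells in 96-well plates, five concentrations, linear interpolation of endpoints. Here, GI50 denotes the concentration required for 50% inhibition of growth. TGI is the concentration that stops growth completely.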 Where a SMILES comes first, the peptide text is derived from it. Bridges are numbered along the chain shown (N, C = ends). Roman numbers before positions name the chains, in order. [ ]: non-standard residue; d: D form. The star is where a group is joined. Quinoxaline2carbonyl = O=C(c1cnc2ccccc2n1)*; NMeV = CN[CH](C(=O)O)C(C)C; NMeC = CN[CH](CS)C(=O)O

Tests used:
Assay in all cases: NCI anticancer screen, dose series, 48 h
MALME-3M melanoma = test system: MALME-3M melanoma
SF-268 CNS = test system: SF-268 CNS
MDA-MB-231 breast = test system: MDA-MB-231 breast
RXF 393 renal = test system: RXF 393 renal
MOLT-4 leukemia = test system: MOLT-4 leukemia
OVCAR-8 ovarian = test system: OVCAR-8 ovarian
SNB-19 CNS = test system: SNB-19 CNS
SK-MEL-5 melanoma = test system: SK-MEL-5 melanoma
OVCAR-4 ovarian = test system: OVCAR-4 ovarian
A498 renal = test system: A498 renal

SMILES | GI50 (MALME-3M melanoma) [µM] | TGI (MALME-3M melanoma) [µM] | GI50 (SF-268 CNS) [µM] | TGI (SF-268 CNS) | GI50 (MDA-MB-231 breast) [µM] | TGI (MDA-MB-231 breast) [µM] | GI50 (RXF 393 renal) [µM] | TGI (RXF 393 renal) [µM] | GI50 (MOLT-4 leukemia) [µM] | TGI (MOLT-4 leukemia) [µM] | GI50 (OVCAR-8 ovarian) [µM] | TGI (OVCAR-8 ovarian) | GI50 (SNB-19 CNS) [µM] | TGI (SNB-19 CNS) | GI50 (SK-MEL-5 melanoma) [µM] | TGI (SK-MEL-5 melanoma) | GI50 (OVCAR-4 ovarian) [µM] | TGI (OVCAR-4 ovarian) [µM] | GI50 (A498 renal) [µM] | TGI (A498 renal) [µM]
C#CCOc1cccc(Nc2ncnc3c(NC(=O)CCl)cccc23)c1 | 16.1 | 35 | 15.7 | 36.4 µM | 22.9 | 61 | 27.3 | 68.4 | 14.4 | 71.1 | 31.6 | > 100 µM | 33.9 | > 100 µM | 14 | 27.2 µM | 37.1 | > 100 | > 100 | > 100
Cc1nc2ccccc2c(/C=C/c2ccc(Br)cc2)c1C(=O)/C=C/c1ccccc1 | 1.7 | 3.12 | 2.14 | 6.38 µM | 1.84 | 3.94 | 1.64 | 3.07 | 0.696 | 5.06 | 1.57 | 3.48 µM | 1.62 | 3.05 µM | 1.72 | 3.11 µM | 1.69 | 4.49 | 1.75 | 3.28
CC(=O)c1c(C(F)(F)F)n([O-])c2ccc(C)cc2[n+]1=O | 2.54 | 15.6 | 3.41 | > 38.9 µM | 1.82 | 5.52 | 10.2 | > 100 | 0.0504 | 5.2 | 3.82 | > 100 µM | 6.03 | > 100 µM | 1.07 | 3 µM | 4.88 | > 100 | 4.42 | 18.9
N/N=C1\CC(=O)NC(=O)N1 | – | > 100 | – | > 100 µM | – | > 100 | – | > 100 | – | > 100 | – | > 100 µM | – | > 100 µM | – | > 100 µM | – | > 100 | – | > 100
C[CH2][Pb]([CH2]C)([CH2]C)[O]C(=O)c1ccc2ccccc2n1 | > 10 | > 10 | > 10 | > 10 µM | > 10 | > 10 | > 10 | > 10 | > 10 | > 10 | > 10 | > 10 µM | > 10 | > 10 µM | > 10 | > 10 µM | > 10 | > 10 | > 10 | > 10
COc1cc2c(c(OC)c1OC)-c1ccc(SC)c(=O)cc1[C@@H](NC1OC(CO)C(O)C(O)C1O)CC2 (stereo partly drawn) | 44.8 | > 100 | 0.049 | > 100 µM | 0.0341 | > 100 | 0.0613 | > 100 | 0.0418 | > 100 | 0.0387 | > 100 µM | 0.0797 | > 100 µM | 0.0288 | 0.195 µM | 0.226 | > 100 | 0.0135 | 0.0674
CCN(Cc1ccc(Cl)s1)c1ccc(CO)c(Cl)c1 | 10 | 28.1 | 17.7 | > 60 µM | 8.74 | 26.4 | 2.1 | 14.6 | 21.5 | > 75.1 | 5.75 | 27.6 µM | 20.7 | > 93.5 µM | 1.9 | 18.1 µM | 0.134 | 0.776 | 0.0495 | 0.189
Nc1ccccc1SCc1csc(-c2ccc(Cl)cc2)n1 | – | 47 | – | > 100 µM | – | 54.6 | – | 60.4 | – | 25 | – | > 100 µM | – | > 100 µM | – | 28.7 µM | – | > 77.1 | – | 55.9
CSC(=S)N/N=C(\C)c1cccc(C)n1 | – | 10 | – | 46.7 µM | – | 36.4 | – | 13.8 | – | – | – | 28.1 µM | – | > 100 µM | – | 8.56 µM | – | 19.5 | – | 10.5
C/C1=C\[C@@H](O)C(=O)/C=C/C=C\c2csc(n2)[C@@H](C)NC(=O)C[C@@]2(CC1)S(=O)SC(=O)[C@]2(C)O (stereo partly drawn) | – | 0.025 | – | 0.285 µM and 0.06 µM | – | 0.265 | – | 0.0331 | > 100 | – | – | 0.0624 µM and 0.0152 µM | 1.15 | 0.511 µM and 2.87 µM | – | 0.0435 µM and 0.0168 µM | – | 0.0793 | – | 0.0272
N#Cc1c(N)[nH]c2ccc(Sc3ccccc3)cc12 | – | – | – | 15.4 µM | – | 15.4 | – | 5.48 | – | 11.2 | – | 12 µM | – | 17.2 µM | – | 4.43 µM | – | 21.6 | – | 2.04
COc1ccc(OC)c(C2SCC(=O)N2NC(=O)C(O)c2ccccc2)c1 (stereo not drawn) | > 100 | > 100 | > 100 | > 100 µM | > 100 | > 100 | > 100 | > 100 | > 100 | > 100 | > 100 | > 100 µM | > 100 | > 100 µM | > 100 | > 100 µM | > 100 | > 100 | > 100 | > 100
CCN1C(=O)N(CC)C2C1NN=c1s/c(=C\c3ccccc3Br)c(=O)n12 (stereo not drawn) | 1.12 | 33.7 | 0.0612 | > 59.5 µM | 0.0347 | 11.4 | 0.0389 | 17.4 | 0.0399 | 29.5 | 0.0424 | > 73.5 µM | 0.052 | > 67.9 µM | 0.0319 | 0.133 µM | 0.069 | 63 | < 0.0156 | 0.0598
CC1NC(=O)C(NC(=O)c2cnc3ccccc3n2)COC(=O)C(C(C)C)N(C)C(=O)C2CSSCC(C(=O)N(C)C(C(C)C)C(=O)OCC(NC(=O)c3cnc4ccccc4n3)C(=O)NC(C)C(=O)N2C)N(C)C1=O (stereo not drawn) (I: Quinoxaline2carbonyl-SA[NMeC][NMeV] / II: Quinoxaline2carbonyl-SA[NMeC][NMeV]; ester I:1-II:C, I:C-II:1; disulfide I:3-II:3; configuration not given here) | – | < 0.01 | – | 0.0641 µM | – | 0.294 | – | < 0.01 | – | > 4.64 | – | < 0.215 µM | – | > 100 µM | – | – | – | 0.254 | – | < 0.01
